Test results taken from patent publication US20020132817A1, “Heterocyclic compounds, their production and use” (priority 1998, published 2002).

SMILES | melting point [°C]
COc1cc(CN2CCOc3nccc(-c4ccccc4)c3C2=O)cc(OC)c1OC [Reference Example 118, 2,3,4,5-Tetrahydro-5-oxo-6-phenyl-4-(3,4,5-trimethoxybenzyl)pyrido[3,2-f][1,4]oxazepine] | 177 to 179
Cc1ccc(-c2c3n(c(=O)c4ncccc24)CC[C@@H](C)CN(Cc2cc(C(F)(F)F)cc(C(F)(F)F)c2)C3=O)cc1 [Reference Example 72, (9R)-7-[3,5-Bis(trifluoromethyl)benzyl]-6,7,8,9,10,11-hexahydro-9-methyl-5-(4-methylphenyl)-6,13-dioxo-13H-[1,4]diazocino[2,1-g][1,7]naphthyridine] | 226 to 228
Cc1ccc(-c2c3n(c(=O)c4ncccc24)CCC(C)CN(Cc2cc(C(F)(F)F)cc(C(F)(F)F)c2)C3=O)cc1 (racemic) [Reference Example 70, (+/−)-7-[3,5-Bis(trifluoromethyl)benzyl]-6,7,8,9,10,11-hexahydro-9-methyl-5-(4-methylphenyl)-6,13-dioxo-13H-[1,4]diazocino[2,1-g][1,7]naphthyridine] | 280 to 281
C[C@@H]1COc2nccc(-c3ccccc3)c2C(=O)N(Cc2cc(C(F)(F)F)cc(C(F)(F)F)c2)C1 [Reference Example 125, (S)-5-[3,5-Bis(trifluoromethyl)benzyl]-2,3,4,5-tetrahydro-3-methyl-6-oxo-7-phenyl-6H-pyrido[2,3-b][1,5]oxazocine] | 142 to 143
Cc1cnc2c(c1-c1ccccc1)C(=O)N(Cc1ccccc1)CCN(C)C2=O [Reference Example 106, 6-Benzyl-5,6,7,8,9,10-hexahydro-3,9-dimethyl-5,10-dioxo-4-phenylpyrido[2,3-f][1,4]diazocine] | 183 to 184
Cc1ccc(-c2ccnc3c2C(=O)N(Cc2ccccc2)CCO3)cc1 [Reference Example 133, 4-Benzyl-2,3,4,5-tetrahydro-5-oxo-6-(4-methylphenyl)pyrido[3,2-f][1,4]oxazepine] | 203 to 204
COc1cc(CN2CCCOc3nccc(-c4ccccc4)c3C2=O)cc(OC)c1OC [Reference Example 122, 2,3,4,5-Tetrahydro-6-oxo-7-phenyl-5-(3,4,5-trimethoxybenzyl)-6H-pyrido[2,3-b][1,5]oxazocine] | 155 to 156
COc1ccc(CN2CCOc3nccc(-c4ccccc4)c3C2=O)cc1OC [Reference Example 120, 4-(3,4-Dimethoxybenzyl)-2,3,4,5-tetrahydro-5-oxo-6-phenylpyrido[3,2-f][1,4]oxazepine] | 175 to 176
C[C@H]1COc2nccc(-c3ccccc3)c2C(=O)N(Cc2ccccc2)C1 [Reference Example 124, (R)-5-Benzyl-2,3,4,5-tetrahydro-3-methyl-6-oxo-7-phenyl-6H-pyrido[2,3-b][1,5]oxazocine] | 139 to 140
C[C@@H]1COc2nccc(-c3ccccc3)c2C(=O)N(Cc2ccccc2)C1 [Reference Example 123, (S)-5-Benzyl-2,3,4,5-tetrahydro-3-methyl-6-oxo-7-phenyl-6H-pyrido[2,3-b][1,5]oxazocine] | 139 to 141
O=C1c2c(-c3ccccc3)ccnc2OCCN1Cc1ccccc1 [Reference Example 121, 4-Benzyl-2,3,4,5-tetrahydro-5-oxo-6-phenylpyrido[3,2-f][1,4]oxazepine] | 209 to 211
Cc1ccc(-c2c3n(c(=O)c4ncccc24)CC[C@H](C)CN(Cc2cc(C(F)(F)F)cc(C(F)(F)F)c2)C3=O)cc1 [Reference Example 74, (9S)-7-[3,5-Bis(trifluoromethyl)benzyl]-6,7,8,9,10,11-hexahydro-9-methyl-5-(4-methylphenyl)-6,13-dioxo-13H-[1,4]diazocino[2,1-g][1,7]naphthyridine] | 227 to 228
Cc1ccc(-c2ccnc3c2C(=O)N(Cc2cc(C(F)(F)F)cc(C(F)(F)F)c2)C[C@H](C)CO3)cc1 [Reference Example 136, (S)-5-[3,5-Bis(trifluoromethyl)benzyl]2,3,4,5-tetrahydro-3-methyl-7-(4-methylphenyl)-6-oxo-6H-pyrido[2,3-b][1,5]oxazocine] | 159 to 160
O=C1c2c(-c3ccccc3)ccnc2OCCN1Cc1ccc(Cl)c(Cl)c1 [Reference Example 119, 4-(3,4-Dichlorobenzyl)-2,3,4,5-tetrahydro-5-oxo-6-phenylpyrido[3,2-f][1,4]oxazepine] | 189 to 192
Cc1ccc(-c2ccnc3c2C(=O)N(Cc2cc(C(F)(F)F)cc(C(F)(F)F)c2)CCO3)cc1 [Reference Example 134, 4-[3,5-Bis(trifluoromethyl)benzyl]2,3,4,5-tetrahydro-5-oxo-6-(4-methylphenyl)pyrido[3,2-f][1,4]oxazepine] | 212 to 213

Continued, values first:

melting point [°C] | SMILES
152 to 154 | CNCc1cc(-c2ccccc2)c2c(n1)OCCN(Cc1cc(C(F)(F)F)cc(C(F)(F)F)c1)C2=O [Reference Example 98, 4-[3,5-Bis(trifluoromethyl)benzyl]-2,3,4,5-tetrahydro-8-methylaminomethyl-5-oxo-6-phenylpyrido[3,2-f][1,4]oxazepine]
200 to 201 | O=C1c2c(-c3ccccc3)ccnc2OCCN1Cc1cc(C(F)(F)F)cc(C(F)(F)F)c1 [Reference Example 65, 4-[3,5-Bis(trifluoromethyl)benzyl]-2,3,4,5-tetrahydro-5-oxo-6-phenylpyrido[3,2-f][1,4]oxazepine]
203 to 205 | Cc1cnc2c(c1-c1ccccc1)C(=O)N(Cc1cc(C(F)(F)F)cc(C(F)(F)F)c1)CCN(C)C2=O [Reference Example 104, 6-[3,5-Bis(trifluoromethyl)benzyl]-5,6,7,8,9,10-hexahydro-3,9-dimethyl-5,10-dioxo-4-phenylpyrido[2,3-f][1,4]diazocine]
235 to 236 | CN(C)C(=O)c1cc(-c2ccccc2)c2c(n1)OCCN(Cc1cc(C(F)(F)F)cc(C(F)(F)F)c1)C2=O [Reference Example 113, 4-[3,5-Bis(trifluoromethyl)benzyl]-N,N-dimethyl-2,3,4,5-tetrahydro-5-oxo-6-phenylpyrido[3,2-f][1,4]oxazepine-8-carboxamide]
147 to 149 | Cc1cnc2c(c1-c1ccccc1)C(=O)N(Cc1cc(C(F)(F)F)cc(C(F)(F)F)c1)C[C@@H](C)CO2 [Reference Example 86, (R)-5-[3,5-Bis(trifluoromethyl)benzyl]-2,3,4,5-tetrahydro-3,8-dimethyl-6-oxo-7-phenyl-6H-pyrido[2,3-b][1,5]oxazocine]
142 to 143 | C[C@H]1COc2nccc(-c3ccccc3)c2C(=O)N(Cc2cc(C(F)(F)F)cc(C(F)(F)F)c2)C1 [Reference Example 126, (R)-5-[3,5-Bis(trifluoromethyl)benzyl]-2,3,4,5-tetrahydro-3-methyl-6-oxo-7-phenyl-6H-pyrido[2,3-b][1,5]oxazocine]
167 to 169 | CN1CCN(Cc2cc(C(F)(F)F)cc(C(F)(F)F)c2)C(=O)c2c(-c3ccccc3)ccnc2C1=O [Reference Example 105, 6-[3,5-Bis(trifluoromethyl)benzyl]-5,6,7,8,9,10-hexahydro-9-methyl-5,10-dioxo-4-phenylpyrido[2,3-f][1,4]diazocine]
228 to 229 | CCN1CCN(Cc2cc(C(F)(F)F)cc(C(F)(F)F)c2)C(=O)c2c(ncc(C)c2-c2ccccc2)C1=O [Reference Example 107, 6-[3,5-Bis(trifluoromethyl)benzyl]-9-ethyl-5,6,7,8,9,10-hexahydro-3-methyl-5,10-dioxo-4-phenylpyrido[2,3-f][1,4]diazocine]
188 to 191 | NCc1cc(-c2ccccc2)c2c(n1)OCCN(Cc1cc(C(F)(F)F)cc(C(F)(F)F)c1)C2=O [Reference Example 97, 8-Aminomethyl-4-[3,5-bis(trifluoromethyl)benzyl]-2,3,4,5-tetrahydro-5-oxo-6-phenylpyrido[3,2-f][1,4]oxazepine]
165 to 166 | CSCc1cc(-c2ccccc2)c2c(n1)OCCN(Cc1cc(C(F)(F)F)cc(C(F)(F)F)c1)C2=O [Reference Example 96, 4-[3,5-Bis(trifluoromethyl)benzyl]-2,3,4,5-tetrahydro-8-methylthiomethyl-5-oxo-6-phenylpyrido[3,2-f][1,4]oxazepine]
270 to 271 | Cc1ccc(-c2c3n(c(=O)c4ncccc24)CCN(Cc2cc(C(F)(F)F)cc(C(F)(F)F)c2)C3=O)cc1 [Reference Example 55, 7-[3,5-Bis(trifluoromethyl)benzyl]-6,7,8,9-tetrahydro-5-(4-methylphenyl)-6,11-dioxo-11H-pyrazino[2,1-g][1,7]naphthyridine]
194 to 195 | CS(=O)(=O)NCc1cc(-c2ccccc2)c2c(n1)OCCN(Cc1cc(C(F)(F)F)cc(C(F)(F)F)c1)C2=O [Reference Example 103, 4-[3,5-Bis(trifluoromethyl)benzyl]-2,3,4,5-tetrahydro-8-methanesulfonylaminomethyl-5-oxo-6-phenylpyrido[3,2-f][1,4]oxazepine]
223 to 224 | CC(=O)NCc1cc(-c2ccccc2)c2c(n1)OCCN(Cc1cc(C(F)(F)F)cc(C(F)(F)F)c1)C2=O [Reference Example 102, 8-Acetylaminomethyl-4-[3,5-bis(trifluoromethyl)benzyl]-2,3,4,5-tetrahydro-5-oxo-6-phenylpyrido[3,2-f][1,4]oxazepine]
242 to 243 | O=C1c2c(-c3ccccc3)ccnc2NCCN1Cc1cc(C(F)(F)F)cc(C(F)(F)F)c1 [Reference Example 75, 4-[3,5-Bis(trifluoromethyl)benzyl]-2,3,4,5-tetrahydro-5-oxo-6-phenyl-1H-pyrido[2,3-e][1,4]diazepine]
242 to 244 | C[C@H]1CCn2c(c(-c3ccccc3)c3cccnc3c2=O)C(=O)N(Cc2cc(C(F)(F)F)cc(C(F)(F)F)c2)C1 [Reference Example 73, (9S)-7-[3,5-Bis(trifluoromethyl)benzyl]-6,7,8,9,10,11-hexahydro-9-methyl-6,13-dioxo-5-phenyl-13H-[1,4]diazocino[2,1-g] [1,7]naphthyridine]
